Results on one molecule are retold here after patent US6458960B1, “Sulfonamide derivatives” (Nippon Kayaku Kabushiki Kaisha, priority 1997, dated 2002).

Assay [1] has as its system A2780 (Humane Ovarian Cancer Cell). The experiment in a line: Anti-tumor in vitro test using A2780 (MTT). The assay is classed as cell-based. Conditions: Homo sapiens, A2780, 72 h, 3 days incubation, absorbance at 540 nm, read-out: IC50 (A2780 growth inhibition). How it is done:
A2780 cells that were suspended on a RPMI 1640 culture medium containing 10% calf serum, penicillin (50 U/ml), and streptomycin (50 μg/ml were seeded in a 96 well flat microplate by 1000 cells (0.2 ml) well, and cultured in a 5% carbon dioxide atmospheric incubator at 37° C. for 1 day. The compounds of the present invention that were dissolved in dimetylsulfoxide anddiluted with a RPMI 1640 containing 10% calf serum to prepare the samples, provided that dimetylsulfoxide was restricted to 0.2% and below in concentration.
The Supernatant liquids of the above A2780 cells wells were removed by aspiration, and then each 0. 2 ml of the prepared samples were added to the wells, which were incubated in a 5% carbon dioxide atmospheric incubator at 37° C. for 3 days. After the incubation, each 0.01 ml of MTT solutions(3-(4,5-dimethylthiazole-2-yl)-2,5-dipheny-ltetra zolium bromide, 5 mg/ml) were added to the wells, which were incubated for another 2 hrs. After the supernatant liquids in the wells were removed by aspiration, the formazans formed in the wells were dissolved in 0.1 ml of dimetylsulfoxide, and absorbances at 540 nm were measured by a micro plate reader to determine indices of live cells counts in the wells.
Inhibitory Rate(%)=[(C−T)/C]×100
where T is absorbance in the well with a test compound and C is absorbance in the well without the compound.

Assay [2] has as its target T1, microtubule proteins originated from swine brain (Sus scrofa, UniProt P02550+P02554).
T1 construct: Microtubule proteins was extracted from swine brain by the Shelansky method; from tissue; host or cells: swine brain
The experiment in a line: Tubulin polymerization inhibitory test (turbidity measurement). In kind it is biochemical. The following applies: microtubule proteins 2 mg/ml, GTP 1 mM, 37° C. for 30 min, absorbance at 340 nm; read-out: IC50 (tubulin polymerization inhibition) (converted). The protocol:
Tubulin polymerization inhibitory test using microtubule proteins originated from swine brain: Microtubule proteins was extracted from swine brain by the Shelansky method(Tanpakusitu jikkenhou, Zoku-Seikagaku Jikken Kouza, Vol.6, “Structure and Function of Cytoskeleton” (1st Vol.), Tokyo Kagaku Dojin). Polymerization of microtubule proteins was assayed by turbidity measurement.
Change in turbidity can be measured by an absorptiometer. The compounds of the present invention were dissolved in dimethylsulfoxide to prepare their test solutions. To 245 μl of a RB solution containing microtubule proteins(2 mg/ml)and GTP(1 mM) was added 5μl of either an above test solution or dimethylsulfoxide to prepare a sample, which was incubated at 37° C. for 30 min. […] Absorbance at 340 nm of the compound was previously measured.
Inhibitory Rate(%)=[1−(T−Cmin)/(Cmax−Cmin)]×100
where T is absorbance of the incubated sample with a test compound, Cmax is absorbance of the incubated sample without the compound, and Cmin is the non-incubated sample without the compound.

Assay [3] relates to collagen-induced arthritis in mice. Nature of the assay: Prophylactic experiment of collagen-induced arthritis in mice. The assay is classed as in vivo. Conditions: 50 mg/kg orally once a day for 5 weeks, last day of test. The protocol: The suspension of M. tuberculosis H37RA in Freund […] adjuvant (2 mg/ml) was mixed with 0.3% typeII collagen (extracted from bovine articular cartilage, Collagen Gijutsu KensyU Kai) in their equal amounts to form an emulsion, 0.1 ml of which was injected subcutaneously into the base of the tail of mice to sensitize it. After twenty-one days, 0.3% type II collagen was diluted with physiological saline solution to the one sixth concentration of the solution, 0.2 ml of which was injected intraperitoneally to sensitize secondarily. The mice that the first sensitizations caused to fall into arthritis were excluded from the test. The suspensions of the compounds(in the Example 13, 27, and 28) in 0.5% sodium carboxy methylcellulose (CMC—Na) were administrated orally to the test group mice once a day for 5 weeks from the day after the second sensitization. 0.5% CMC—Na solutions were administrated to the control group mice to be compared with. Each group was composed of eight mice. […] Scores and their standards are as follows.
1: Tumefaction or rubor in only one finger(or heel)
2: Tumefaction or rubor in two or above fingers (or heels) or in parts of fore (or hind) paw(s)
3: Tumefaction or rubor in the wholes of fore (or hind) paw(s) including joints
4: Ankylosis in the joints of finger(s) (or heel(s)) or fore (or hind) paw(s)

Converted amounts (≈) assume the structure as drawn.

T1 sequence (P02550 whole entry): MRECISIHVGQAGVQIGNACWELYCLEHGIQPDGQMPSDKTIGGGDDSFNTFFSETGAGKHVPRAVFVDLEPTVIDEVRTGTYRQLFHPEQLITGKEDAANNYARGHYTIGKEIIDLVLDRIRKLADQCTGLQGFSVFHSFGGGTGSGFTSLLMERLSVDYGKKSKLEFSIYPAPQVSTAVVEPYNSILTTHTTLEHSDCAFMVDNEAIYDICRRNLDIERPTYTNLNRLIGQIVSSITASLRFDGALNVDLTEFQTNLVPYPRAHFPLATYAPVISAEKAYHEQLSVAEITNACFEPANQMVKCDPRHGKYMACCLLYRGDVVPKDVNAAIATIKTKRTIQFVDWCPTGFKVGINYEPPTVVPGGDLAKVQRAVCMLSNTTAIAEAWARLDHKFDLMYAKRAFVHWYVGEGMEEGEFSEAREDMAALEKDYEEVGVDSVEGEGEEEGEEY
T1 sequence (P02554 whole entry): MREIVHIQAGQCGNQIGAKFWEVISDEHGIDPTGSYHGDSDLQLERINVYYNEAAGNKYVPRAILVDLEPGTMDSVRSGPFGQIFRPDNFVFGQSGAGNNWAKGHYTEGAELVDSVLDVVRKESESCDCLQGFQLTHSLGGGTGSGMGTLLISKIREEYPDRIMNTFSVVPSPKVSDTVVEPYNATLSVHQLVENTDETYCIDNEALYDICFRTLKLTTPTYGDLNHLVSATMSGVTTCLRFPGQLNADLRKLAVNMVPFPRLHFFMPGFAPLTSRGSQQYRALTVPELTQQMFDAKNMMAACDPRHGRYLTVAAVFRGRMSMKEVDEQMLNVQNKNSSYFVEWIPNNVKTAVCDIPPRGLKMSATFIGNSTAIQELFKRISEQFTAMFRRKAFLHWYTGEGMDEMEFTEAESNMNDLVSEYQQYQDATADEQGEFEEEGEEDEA

`CCc1onc(C)c1C(=O)Nc1ccccc1NS(=O)(=O)c1ccc(OC)cc1` [Example 28, N-[2-(4-Methoxybenzenesulfonamide)phenyl]-5-ethyl-3-methyl-4-isoxazole Carboxamide]: the IC50 (in general, the point on the concentration scale where inhibition reaches its midpoint) in assay [1] is 0.013 µg/mL (≈ 0.0313 µM); in assay [2] it was 3.13 µM. For the same molecule, in assay [3], the “Averaged score (arthritis, 0 to 4 per limb, maximum 16)” value came to 3.0 ± 1.1.
